These results are taken from US12331040B2 (Karyopharm Therapeutics Inc., priority 2013, dated 2025).

Common to all, as to assay: MTT cell proliferation assay
What all share (type): cell-based

The subject of one assay is 3T3 cells. Conditions: Mus musculus, NIH3T3, approximately 64-72 hours incubation. In a few lines:
(§1)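 Cytotoxicity was measured by MTT: OD490 of the solubilized formazan after roughly 4 h with MTT reagent, reported as mean percent inhibition relative to the negative control. Test compounds covered eight concentrations between 1 nM and 30 μM, added to 5,000–10,000 cells per well that had attached overnight.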

For a further assay, the system named is MS751 cells. The following applies: Homo sapiens, MS751, MS751 cells, approximately 64-72 hours incubation. In a few lines: as §1
Another assay deals with Z138 cells. The following applies: Homo sapiens, Z-138, Z138 cells, approximately 64-72 hours incubation. In a few lines:
as §1

Where [1] appears, read: read-out: MTT Assay IC50 MS-751.
Setting [2] is: read-out: MTT Assay IC50, MS-751.
The mark [3] stands for this setting: read-out: MTT Assay IC50, Z-138.

pIC50: −log10 of the molar value. Read-outs that look alike come from different tables or passages of the source.

As to `CC1(F)CCN(C(=O)c2ccc(-c3cc(C(F)(F)F)c4oc(CNC(=O)/C=C/c5ccc(N)nc5)cc4c3)cc2)CC1` [Compound 604, (E)-3-(6-aminopyridin-3-yl)-N-((5-(4-(4-fluoro-4-methylpiperidine-1-carbonyl)phenyl)-7-(trifluoromethyl)benzofuran-2-yl)methyl)acrylamide], the negative logarithm of the IC50 (pIC50) is under 5.00 in the assay on 3T3 cells (read-out: MTT Assay IC50 3T3), 5.30 to 7.00 in the assay on MS751 cells (setting [1]) and 5.30 to 7.00 in the assay on Z138 cells (read-out: MTT Assay IC50 Z-138).
As to `Nc1ccc(/C=C/C(=O)NCc2cc3cc(-c4ccc(S(=O)(=O)N5CCOCC5)cc4)cc(C(F)(F)F)c3o2)cn1` [Compound 531, (E)-3-(6-aminopyridin-3-yl)-N-((5-(4-(morpholinosulfonyl)phenyl)-7-(trifluoromethyl)benzofuran-2-yl)methyl)acrylamide], the results for the negative logarithm of the IC50 (pIC50) with 3T3 cells (read-out: MTT Assay IC50 3T3), in the assay on MS751 cells (setting [1]) and with Z138 cells (read-out: MTT Assay IC50 Z-138) were 5.30 to 7.00, over 7.00 and 5.30 to 7.00, respectively.
As for `Nc1ccc(/C=C/C(=O)NCc2cc3cc(-c4cnc(C(=O)N5CCOCC5)nc4)cc(Cl)c3o2)cn1` [Compound 546, (E)-3-(6-Aminopyridin-3-yl)-N-((7-chloro-5-(2-(morpholine-4-carbonyl)pyrimidin-5-yl)benzofuran-2-yl)methyl)acrylamide], the pIC50 in the assay on 3T3 cells (read-out: MTT Assay IC50 3T3) is under 5.00; in the assay on MS751 cells (setting [1]), 5.30 to 7.00; in the assay on Z138 cells (read-out: MTT Assay IC50 Z-138), 5.30 to 7.00.
In the case of `Nc1ccc(/C=C/C(=O)NCc2cc3cc(-c4ccc(C(=O)N5CC6CC5CO6)cn4)cc(C(F)(F)F)c3o2)cn1` (stereo not drawn) [Compound 633, (E)-N-((5-(5-(2-oxa-5-azabicyclo[2.2.1]heptane-5-carbonyl)pyridin-2-yl)-7-(trifluoromethyl)benzofuran-2-yl)methyl)-3-(6-aminopyridin-3-yl)acrylamide], the negative-log IC50 (pIC50) was under 5.00 in the assay on 3T3 cells (read-out: MTT Assay IC50 3T3), 5.30 to 7.00 in the assay on MS751 cells (setting [1]) and 5.30 to 7.00 in the assay on Z138 cells (read-out: MTT Assay IC50 Z-138).
Turning to `Nc1ccc(/C=C/C(=O)NCc2cc3cc(-c4ccc(C(=O)N5CCC(F)(F)CC5)cc4)cc(-c4cc(F)ccc4F)c3o2)cn1` [Compound 740, (E)-3-(6-aminopyridin-3-yl)-N-((7-(2,5-difluorophenyl)-5-(4-(4,4-difluoropiperidine-1-carbonyl)phenyl)benzofuran-2-yl)methyl)acrylamide], the negative logarithm of the IC50 (pIC50) is 5.30 to 7.00 in the assay on 3T3 cells (read-out: MTT Assay IC50, 3T3); over 7.00 in the assay on MS751 cells (setting [2]); over 7.00 in the assay with Z138 cells (setting [3]).
As to `Cc1noc(C)c1/C=C/C(=O)NCc1cc2cc(-c3ccc(C(=O)N4CCOCC4)cc3)cc(Cl)c2o1` [Compound 541, (E)-N-((7-Chloro-5-(4-(morpholine-4-carbonyl)phenyl)benzofuran-2-yl)methyl)-3-(3,5-dimethylisoxazol-4-yl)acrylamide], the negative-log IC50 (pIC50) in the assay on 3T3 cells (read-out: MTT Assay IC50 3T3) was under 5.00; with MS751 cells (setting [1]), 5.30 to 7.00; in the assay on Z138 cells (read-out: MTT Assay IC50 Z-138), 5.30 to 7.00.
Consider `CC(C)(NC(=O)/C=C/c1ccc(N)nc1)c1cc2cc(-c3ccc(C(=O)N4CCOCC4)cc3)cc(Cl)c2o1` [Compound 512, (E)-3-(6-aminopyridin-3-yl)-N-(2-(7-chloro-5-(4-(morpholine-4-carbonyl)phenyl)benzofuran-2-yl)propan-2-yl)acrylamide], for which the pIC50 in the assay with 3T3 cells (read-out: MTT Assay IC50 3T3), in the assay with MS751 cells (setting [1]) and in the assay on Z138 cells (read-out: MTT Assay IC50 Z-138) was under 5.00 throughout.
As for `Cc1noc(C)c1C(O)c1ccc(-c2cc(Cl)c3oc(CNC(=O)/C=C/c4ccc(N)nc4)cc3c2)s1` (stereo not drawn) [Compound 578, (E)-3-(6-aminopyridin-3-yl)-N-((7-chloro-5-(5-((3,5-dimethylisoxazol-4-yl)(hydroxy)methyl)thiophen-2-yl)benzofuran-2-yl)methyl)acrylamide], the pIC50 is under 5.00 in the assay on 3T3 cells (read-out: MTT Assay IC50 3T3), 5.00 to 5.30 in the assay on MS751 cells (setting [1]) and 5.00 to 5.30 with Z138 cells (read-out: MTT Assay IC50 Z-138).
On to `O=C(/C=C/c1cccnc1)NCc1cc2cc(-c3ccc(C(=O)N4CCC(F)(F)CC4)cn3)cc(OC(F)(F)F)c2o1` [Compound 752, (E)-N-((5-(5-(4,4-difluoropiperidine-1-carbonyl)pyridin-2-yl)-7-(trifluoromethoxy)benzofuran-2-yl)methyl)-3-(pyridin-3-yl)acrylamide], for which the pIC50 in the assay on 3T3 cells (read-out: MTT Assay IC50, 3T3) is over 7.00; in the assay with MS751 cells (setting [2]) it was over 7.00; in the assay on Z138 cells (setting [3]) it was over 7.00.
With `Nc1ccc(/C=C/C(=S)NCc2cc3cc(-c4ccc(C(=S)N5CCC(F)(F)CC5)cn4)cc(C(F)(F)F)c3o2)cn1` [Compound 678, (E)-3-(6-aminopyridin-3-yl)-N-((5-(5-(4,4-difluoropiperidine-1-carbonothioyl)pyridin-2-yl)-7-(trifluoromethyl)benzofuran-2-yl)methyl)prop-2-enethioamide], the pIC50 in the assay with 3T3 cells (read-out: MTT Assay IC50, 3T3) was under 5.00; in the assay with MS751 cells (setting [2]), 5.30 to 7.00; with Z138 cells (setting [3]), 5.30 to 7.00.
In the case of `Nc1ccc(/C=C/C(=O)NCc2cc3c(-c4ccc(C(=O)N5CCC(F)(F)CC5)cn4)cc(C(F)(F)F)cc3o2)cn1` [Compound 761, (E)-3-(6-aminopyridin-3-yl)-N-((4-(5-(4,4-difluoropiperidine-1-carbonyl)pyridin-2-yl)-6-(trifluoromethyl)benzofuran-2-yl)methyl)acrylamide], the negative-log IC50 (pIC50) in the assay with 3T3 cells (read-out: MTT Assay IC50, 3T3) was under 5.00; in the assay with MS751 cells (setting [2]), under 5.00; in the assay with Z138 cells (setting [3]), under 5.00.
As to `CC1(C)COCCN1C(=O)c1ccc(-c2cc(C(F)(F)F)c3oc(CNC(=O)/C=C/c4ccc(N)nc4)cc3c2)nc1` [Compound 569, (E)-3-(6-aminopyridin-3-yl)-N-((5-(5-(3,3-dimethylmorpholine-4-carbonyl)pyridin-2-yl)-7-(trifluoromethyl)benzofuran-2-yl)methyl)acrylamide], the values for the pIC50 with 3T3 cells (read-out: MTT Assay IC50 3T3), in the assay on MS751 cells (setting [1]) and with Z138 cells (read-out: MTT Assay IC50 Z-138) were under 5.00, over 7.00 and over 7.00, respectively.
Regarding `Nc1ccc(/C=C/C(=O)NCc2cc3cc(-c4cc(C(=O)N5CCOCC5)c(F)cn4)cc(Cl)c3o2)cn1` [Compound 588, (E)-3-(6-aminopyridin-3-yl)-N-((7-chloro-5-(5-fluoro-4-(morpholine-4-carbonyl)pyridin-2-yl)benzofuran-2-yl)methyl)acrylamide], the negative-log IC50 (pIC50) in the assay with 3T3 cells (read-out: MTT Assay IC50 3T3) is 5.30 to 7.00; in the assay with MS751 cells (setting [1]), over 7.00; in the assay with Z138 cells (read-out: MTT Assay IC50 Z-138) it was over 7.00.
For the molecule `O=C(/C=C/c1cccnc1)NCc1cc2cc(-c3ccc(C(=O)N4CCC(F)(F)CC4)cc3F)cc(C(F)(F)F)c2o1` [Compound 684, (E)-N-((5-(4-(4,4-difluoropiperidine-1-carbonyl)-2-fluorophenyl)-7-(trifluoromethyl)benzofuran-2-yl)methyl)-3-(pyridin-3-yl)acrylamide], the pIC50 is under 5.00 in the assay with 3T3 cells (read-out: MTT Assay IC50, 3T3); 5.30 to 7.00 in the assay with MS751 cells (setting [2]); 5.30 to 7.00 in the assay with Z138 cells (setting [3]).
In the case of `Nc1ccc(/C=C/C(=O)NCc2cc3cc(-c4ccc(C(=O)N5CCC(F)(F)CC5)cc4)cc(-c4c(F)cc(F)cc4F)c3o2)cn1` [Compound 697, (E)-3-(6-aminopyridin-3-yl)-N-((5-(4-(4,4-difluoropiperidine-1-carbonyl)phenyl)-7-(2,4,6-trifluorophenyl)benzofuran-2-yl)methyl)acrylamide], the pIC50 with 3T3 cells (read-out: MTT Assay IC50, 3T3) is 5.30 to 7.00; in the assay on MS751 cells (setting [2]), over 7.00; in the assay on Z138 cells (setting [3]), over 7.00.
Consider `CN1CCN(C(=O)c2ccc(-c3cc(C(F)(F)F)c4oc(CNC(=O)/C=C/c5ccc(N)nc5)cc4c3)cc2)CC1` [Compound 561, (E)-3-(6-aminopyridin-3-yl)-N-((5-(4-(4-methylpiperazine-1-carbonyl)phenyl)-7-(trifluoromethyl)benzofuran-2-yl)methyl)acrylamide], for which the negative logarithm of the IC50 (pIC50) in the assay on 3T3 cells (read-out: MTT Assay IC50 3T3) is 5.00 to 5.30; in the assay with MS751 cells (setting [1]) it was over 7.00; in the assay on Z138 cells (read-out: MTT Assay IC50 Z-138) it was over 7.00.
Regarding `O=C(/C=C/c1cccnc1)NCc1cc2cc(-c3ccc(C(=O)N4CCC(F)(F)CC4)cn3)cc(-c3cc4ccccc4o3)c2o1` [Compound 721, (E)-N-((5′-(5-(4,4-difluoropiperidine-1-carbonyl)pyridin-2-yl)-[2,7′-bibenzofuran]-2′-yl)methyl)-3-(pyridin-3-yl)acrylamide], the negative logarithm of the IC50 (pIC50) in the assay with 3T3 cells (read-out: MTT Assay IC50, 3T3) was over 7.00; in the assay on MS751 cells (setting [2]) it was over 7.00; with Z138 cells (setting [3]), over 7.00.
For `O=C(/C=C/c1cccnc1)NCc1cc2cc(-c3ccc(S(=O)(=O)N4CCC(F)(F)CC4)cc3)cc(C(F)(F)F)c2o1` [Compound 680, (E)-N-((5-(4-((4,4-difluoropiperidin-1-yl)sulfonyl)phenyl)-7-(trifluoromethyl)benzofuran-2-yl)methyl)-3-(pyridin-3-yl)acrylamide], the pIC50 with 3T3 cells (read-out: MTT Assay IC50, 3T3) is under 5.00; in the assay with MS751 cells (setting [2]) it was 5.30 to 7.00; in the assay with Z138 cells (setting [3]) it was 5.30 to 7.00.
Consider `CC1(F)CCN(C(=O)c2ccc(-c3cc(C(F)(F)F)c4oc(CNC(=O)/C=C/c5ccc(N)nc5)cc4c3)nc2)C1` (single isomer, unassigned) [Compound 654, (E)-3-(6-aminopyridin-3-yl)-N-((5-(5-(3-fluoro-3-methylpyrrolidine-1-carbonyl)pyridin-2-yl)-7-(trifluoromethyl)benzofuran-2-yl)methyl)acrylamide], for which the pIC50 in the assay on 3T3 cells (read-out: MTT Assay IC50 3T3) is under 5.00; in the assay on MS751 cells (setting [1]) it was over 7.00; in the assay with Z138 cells (read-out: MTT Assay IC50 Z-138) it was over 7.00.
`Nc1ccc(/C=C/C(=O)NCc2cc3cc(-c4ccc(C(=O)N5CCNCC5)cn4)cc(Cl)c3o2)cn1` [Compound 589, (E)-3-(6-aminopyridin-3-yl)-N-((7-chloro-5-(5-(piperazine-1-carbonyl)pyridin-2-yl)benzofuran-2-yl)methyl)acrylamide]: the pIC50 in the assay on 3T3 cells (read-out: MTT Assay IC50 3T3) is under 5.00; with MS751 cells (setting [1]), 5.30 to 7.00; in the assay with Z138 cells (read-out: MTT Assay IC50 Z-138) it was over 7.00.
Take `Nc1ccc(/C=C/C(=O)NCc2cc3cc(-c4ccc(C(=S)N5CCC(F)(F)CC5)cc4F)cc(-c4ccc(F)cc4)c3o2)cn1` [Compound 758, (E)-3-(6-aminopyridin-3-yl)-N-((5-(4-(4,4-difluoropiperidine-1-carbonothioyl)-2-fluorophenyl)-7-(4-fluorophenyl)benzofuran-2-yl)methyl)acrylamide]: the negative-log IC50 (pIC50) in the assay with 3T3 cells (read-out: MTT Assay IC50, 3T3) is under 5.00; with MS751 cells (setting [2]), over 7.00; with Z138 cells (setting [3]), over 7.00.
